Results as given in EP1145714A1, “DRUGS” (Takeda Chemical Industries, Ltd., priority 1998, dated 2000).

Tests used:
[1] = test system: vomiting induced by a central emetic agent apomorphine in dogs; experiment: Vomiting induced by apomorphine in dogs; format: in vivo, beagle dogs; conditions: apomorphine 0.1 mg/kg subcutaneous; for B: Frequency of vomiting (mean ± SD) / C: Time period until first vomiting (minute; mean ± SD) / D: Duration of vomiting (minute; mean ± SD) / Number of dogs with vomiting/number of tested dogs: one hour
Procedure: 3 male or female beagle dogs (7.8 to 15.9 kg) per one group were used. Apomorphine was subcutaneously given at 0.1 mg/ml/kg. 2.5 hours prior to apomorphine administration, a small amount of a feed was given to the animals. 30 minutes thereafter, predetermined doses of the compound No. 3 were orally given. Similarly, 0.5 % methyl cellulose solution was orally given to a control animal group under no fasting. A predetermined dose of ondansetron was given orally to the animals under fasting. The frequency of vomiting was counted in number, up to one hour after apomorphine administration. The compound No. 3 was dissolved in 0.5 % methyl cellulose solution, for oral dosing at a ratio of 1 ml per 1 kg • body weight. An injection of ondansetron at a concentration of 0.2% w/v was orally given. Additionally, 0.5 % methyl cellulose solution was orally given at a ratio of 1 ml per 1 kg • body weight. The data relating to the frequency of vomiting, the latency and the time period from the occurrence of vomiting to the termination thereof were statistically analyzed by the Dunnett test, with reference to the difference from the control group.
The vomiting suppression ratio was calculated by the following formula.

[2] = test system: acute and delayed vomiting induced by cisplatin in ferrets; experiment: Acute and delayed vomiting induced by cisplatin in ferrets, oral dosing once or twice daily; format: in vivo; conditions: cisplatin 5 mg/kg i.p.; for Duration (in hour; mean ± SD) / Latency (in hour; mean ± SD) / On day 0 (0-24 hours): frequency of retching and vomiting (mean ± SD) / On day 0 (0-24 hours): number of ferrets with vomiting/ number of tested ferrets / On days 1-2(24-48 hours): frequency of retching and vomiting (mean ± SD) / On days 1-2(24-48 hours): number of ferrets with vomiting/ number of tested ferrets / Total frequency of retching and vomiting (on days 0-2; 0-72 hours): twice daily
Procedure: Male 4 to 6 ferrets (1.2 to 2.2 kg) per one group were used. Cisplatin was intraperitoneally given at 5 mg/5ml/kg. 30 minutes prior to cisplatin administration and 24 and 48 hours after cisplatin administration, predetermined doses of the compound No. 3 were orally given in case of dosing once daily. 30 minutes prior to cisplatin administration and 12, 24, 36, 48 and 60 hours after cisplatin administration, predetermined doses of the compound No. 3 were orally given in case of dosing twice daily. 30 minutes prior to the dosing of the compound No. 3, a small amount of a feed was given to the animals in any of the cases. Similarly, a predetermined volume of 0.5 % methyl cellulose solution was similarly given orally to a control animal group under no fasting. A predetermined dose of ondansetron was orally given to the animals under fasting. To a control animal group of ondansetron, a predetermined volume of physiological saline was orally given to the animals under fasting. The frequency of vomiting was counted in number, up to 72 hours after cisplatin administration.
The compound No. 3 was suspended in 0.5 % methyl cellulose solution, for oral dosing at predetermined doses at a ratio of 1 ml per 1 kg body weight. An injection of ondansetron at 0.2 w/v % concentration was orally given at a predetermined volume. Additionally, 0.5 % methyl cellulose solution was orally given at a ratio of 1 ml per 1 kg body weight, while physiological saline was orally given at a ratio of 0.5 to 1.5 ml per 1 kg body weight. The data relating to the frequency of vomiting, the time period (latency) until first vomiting and the time period from the occurrence of vomiting to the termination thereof were statistically analyzed by the Dunnett test, with reference to the difference from the control group.
The acute vomiting suppression ratio, delayed vomiting suppression ratio and total vomiting suppression ratio were calculated by the following formula. [Frequency of retching or vomiting in control] - [Frequency of retching or vomiting in animals dosed with compound No. 3] / [Frequency of retching or vomiting in control] x 100 (%) [formula]

SMILES: Cc1ccc(-c2c3n(c(=O)c4ncccc24)CC[C@@H](C)CN(Cc2cc(C(F)(F)F)cc(C(F)(F)F)c2)C3=O)cc1 [Cpd. No.3, (9R)-7-[3,5-bis(trifluoromethyl)benzyl]-6,7,8,9,10,11-hexahydro-9-methyl-5-(4-methylphenyl)-6,13-dioxo-13H-[1,4]diazocino[2,1-g][1,7]naphthylidine]
- Effect on vomiting (in words) ([1]; 3 mg/kg p.o.): likely to be suppressed
- Vomiting suppression ratio ([1]; 3 mg/kg p.o.): 48 % NS
- B: Frequency of vomiting (mean ± SD) ([1]; 3 mg/kg p.o.): 6.3 ± 1.3
- C: Time period until first vomiting (minute; mean ± SD) ([1]; 3 mg/kg p.o.): 7.2 ± 0.6 min
- D: Duration of vomiting (minute; mean ± SD) ([1]; 3 mg/kg p.o.): 12.0 ± 3.0 min
- Number of dogs with vomiting/number of tested dogs ([1]; 3 mg/kg p.o.): 3/3
- Effect on the duration of vomiting from the start to the termination (in words) ([1]; 10 mg/kg p.o.): greatly shortened
- Effect on vomiting (in words) ([1]; 10 mg/kg p.o.): prominently suppressed
- Vomiting suppression ratio ([1]; 10 mg/kg p.o.): 89 % a
- B: Frequency of vomiting (mean ± SD) ([1]; 10 mg/kg p.o.): 1.3± 0.9b
- C: Time period until first vomiting (minute; mean ± SD) ([1]; 10 mg/kg p.o.): 27.6 ± 13.8 min
- D: Duration of vomiting (minute; mean ± SD) ([1]; 10 mg/kg p.o.): 1.2 ± 1.2 a minute
- Number of dogs with vomiting/number of tested dogs ([1]; 10 mg/kg p.o.): 2/3
- Acute vomiting suppression ratio (0 to 24 hours after cisplatin dosing) ([2]; 0.03 mg/kg p.o. twice daily): 25 % NS
- Delayed vomiting suppression ratio (24 to 72 hours after cisplatin dosing) ([2]; 0.03 mg/kg p.o. twice daily): 31 % NS
- Total vomiting suppression ratio (0 to 72 hours after cisplatin dosing) ([2]; 0.03 mg/kg p.o. twice daily): 30 % NS
- Duration (in hour; mean ± SD) ([2]; 0.03 mg/kg × 2 p.o.): 50.8 ± 7.3 h
- Latency (in hour; mean ± SD) ([2]; 0.03 mg/kg × 2 p.o.): 13.4 ± 4.9 h
- On day 0 (0-24 hours): frequency of retching and vomiting (mean ± SD) ([2]; 0.03 mg/kg × 2 p.o.): 24.8 ± 14.8
- On day 0 (0-24 hours): number of ferrets with vomiting/ number of tested ferrets ([2]; 0.03 mg/kg × 2 p.o.): 3/4
- On days 1-2(24-48 hours): frequency of retching and vomiting (mean ± SD) ([2]; 0.03 mg/kg × 2 p.o.): 245.8 ± 34.3
- On days 1-2(24-48 hours): number of ferrets with vomiting/ number of tested ferrets ([2]; 0.03 mg/kg × 2 p.o.): 4/4
- Total frequency of retching and vomiting (on days 0-2; 0-72 hours) ([2]; 0.03 mg/kg × 2 p.o.): 270.5 ± 43.7
- Acute vomiting suppression ratio (0 to 24 hours after cisplatin dosing) ([2]; 0.1 mg/kg p.o. twice daily): 21 % NS
- Delayed vomiting suppression ratio (24 to 72 hours after cisplatin dosing) ([2]; 0.1 mg/kg p.o. twice daily): 37 % a
- Effect on delayed vomiting induced by cisplatin (in words) ([2]; 0.1 mg/kg p.o. twice daily): significantly suppressed
- Total vomiting suppression ratio (0 to 72 hours after cisplatin dosing) ([2]; 0.1 mg/kg p.o. twice daily): 36 % a
- Duration (in hour; mean ± SD) ([2]; 0.1 mg/kg × 2 p.o.): 54.8 ± 6.1 h
- Latency (in hour; mean ± SD) ([2]; 0.1 mg/kg × 2 p.o.): 13.3 ± 6.3 h
- On day 0 (0-24 hours): frequency of retching and vomiting (mean ± SD) ([2]; 0.1 mg/kg × 2 p.o.): 26.0 ± 11.2
- On day 0 (0-24 hours): number of ferrets with vomiting/ number of tested ferrets ([2]; 0.1 mg/kg × 2 p.o.): 3/4
- On days 1-2(24-48 hours): frequency of retching and vomiting (mean ± SD) ([2]; 0.1 mg/kg × 2 p.o.): 222.0 ± 20.7 a
- On days 1-2(24-48 hours): number of ferrets with vomiting/ number of tested ferrets ([2]; 0.1 mg/kg × 2 p.o.): 4/4
- Total frequency of retching and vomiting (on days 0-2; 0-72 hours) ([2]; 0.1 mg/kg × 2 p.o.): 248.0 ± 10.7 a
- Acute vomiting suppression ratio (0 to 24 hours after cisplatin dosing) ([2]; 0.3 mg/kg p.o. twice daily): 100 % NS
- Delayed vomiting suppression ratio (24 to 72 hours after cisplatin dosing) ([2]; 0.3 mg/kg p.o. twice daily): 41 % b
- Total vomiting suppression ratio (0 to 72 hours after cisplatin dosing) ([2]; 0.3 mg/kg p.o. twice daily): 46 % b
- Duration (in hour; mean ± SD) ([2]; 0.3 mg/kg × 2 p.o.): 31.1 ± 1.9 a hour
- Latency (in hour; mean ± SD) ([2]; 0.3 mg/kg × 2 p.o.): 34.5 ± 3.4 b hour
- On day 0 (0-24 hours): frequency of retching and vomiting (mean ± SD) ([2]; 0.3 mg/kg × 2 p.o.): 0
- On day 0 (0-24 hours): number of ferrets with vomiting/ number of tested ferrets ([2]; 0.3 mg/kg × 2 p.o.): 0/4
- On days 1-2(24-48 hours): frequency of retching and vomiting (mean ± SD) ([2]; 0.3 mg/kg × 2 p.o.): 209.3 ± 14.0 b
- On days 1-2(24-48 hours): number of ferrets with vomiting/ number of tested ferrets ([2]; 0.3 mg/kg × 2 p.o.): 4/4
- Total frequency of retching and vomiting (on days 0-2; 0-72 hours) ([2]; 0.3 mg/kg × 2 p.o.): 209.3 ± 14.0 b
- Acute vomiting suppression ratio (0 to 24 hours after cisplatin dosing) ([2]; 1 mg/kg p.o. twice daily): 0 % NS
- Delayed vomiting suppression ratio (24 to 72 hours after cisplatin dosing) ([2]; 1 mg/kg p.o. twice daily): 70 % a
